Assay results from patent US12029747B2, “Use of baicalin in preparation of drug for treating tumor irresponsive to immune checkpoint inhibitors (ICIs)/undergoing hyperprogression” (BEIJING FRIENDSHIP HOSPITAL, CAPITAL MEDICAL UNIVERSITY, priority 2022, dated 2024).
“Also recorded” adds a separate entry of the source.

Assays:
[1] = Adverse reactions in treated tumor-bearing mice; type: in vivo; settings: tumor-bearing mice irresponsive to ICIs
Protocol: (§1) During administration, a body weight of mice was monitored every 3 days, and a tumor volume was measured.

Foxp3^+Treg cells = assay: Detection of Foxp3+Treg cells in a tumor tissue by FCM (NR-FMT LLC-bearing mice); type: in vivo, C57BL/6J mice; settings: flow cytometry of tumor tissue
[2] = system: Lewis lung carcinoma (LLC); assay: Therapeutic effect in PD-1 mAb-irresponsive (NR-FMT) LLC-bearing mice: tumor volume and weight; type: in vivo, C57BL/6J mice; settings: compared with NR-Control group, HQG intragastric daily, PD-1 mAb i.p. once every 3 days
Protocol: Pseudo-germ-free mouse modeling: Mice were treated with broad-spectrum antibiotics to construct pseudo-germ-free mouse models. 36 female C57BL/6J mice at 5 weeks (experimental animal license No.: SCXK (Beijing) 2019-0009) were purchased from Beijing Vital River Laboratory Animal Technology Co., Ltd. The mice were raised under the following conditions: cleanliness: SPF level; room temperature: 20° C. to 22° C.; humidity: 60±5%; 12 h light/12 h dark alternating cycle; and free eating and drinking. All animal protocols in this experiment were approved by the Beijing MaideiKangna Animal Ethics Committee, and animal experimental operations were conducted under the guidance of the Laboratory Animal Protection Association.
After the mice were raised adaptively for one week, the mice were intragastrically administered daily with 100 μL of ABT for consecutive 3 days. […]
Subcutaneous inoculation of LLC cells: An LLC cell suspension with a concentration of about 1×10^7 cells/mL was inoculated at a right axilla of a fecal bacteria-transplanted mouse with an inoculum size of 0.2 mL/mouse. The longest and shortest diameters of a tumor were measured by a vernier caliper, and a volume of the tumor=½ longest diameter×shortest diameter^2. […]
as §1

## O=C(O)[C@H]1O[C@@H](Oc2cc3oc(-c4ccccc4)cc(=O)c3c(O)c2O)[C@H](O)[C@@H](O)[C@@H]1O [HQG, baicalin]
[1]
  adverse reactions: no significant adverse reactions
Foxp3^+Treg cells
  number of Foxp3+Treg cells in a tumor: not reduced
[2]
  tumor volume: no significant difference; also recorded: not reduced
  tumor weight: no significant difference; also recorded: not reduced
